Experiments:
[1] = test system: N. gonorrhoeae adherence to primary human cervical epithelial (PEX) cells; test: Fluorometric adherence assay, gonococci to PEX cells; assay type: cell-based, Neisseria gonorrhoeae
From the text: Briefly, six N. gonorrhoeae strains were used in the experiments. These included the laboratory strain, MS11; the low-passage isolates, 1291, UT38097, LT38885, PID-26, and SK92-679; all of which were transformed with the green fluorescent protein (GFP) expression plasmid, pCmGFP (GenBank accession number FJ172221) Srikhanta et al (2009, PLoS Pathog. 5(4):e1000400) and, thus, expressed GFP Edwards et al (2000, Infect Immun 68(9):5354-63). […] The ability of carbamazepine to block the adherence of N. gonorrhoeae to human, primary cervical epithelial (PEX) cells was evaluated using a fluorometric adherence assay. Assays were performed essentially as described by Jen et al (2013, supra). In this regard, PEX cells were seeded to a 96-well plate and allowed to grow to confluence. Gonococci were then used to challenge (1 h) PEX cells simultaneously with, or without, various concentrations of carbamazepine ([…], 10 nM, 1 μM, or 100 μM, as noted) or 1% DMSO (vehicle control). Uninfected PEX cells treated with 1% DMSO served as a control for background fluorescence. Fluorescence (485/528 nm) intensity, corresponding to bacterial adherence, was recorded using a Synergy HT Multi-mode Microplate Reader (BioTek Instruments, Winooski, VT USA). The assay was performed in triplicate on 3 separate occasions. A Student's t-test was used to determine the statistical significance of the calculated mean of bacterial adherence.
(§1) The ability of the compounds, or negative controls to block adherence of N. gonorrhoeae strain MS11gfp to PEX cells, CHO-CR3, or CHO-neo cells was evaluated using a fluorometric microtiter plate assay. Assays were performed essentially as described by Jen et al. (2013, Plos Pathog 9(5): e1003377). In this regard, GFP-expressing gonococci were used to challenge (1 h) PEX or CHO cells immediately following compound addition. Fluorescence (485/528 nm) intensity, corresponding to bacterial adherence, was recorded using a Synergy HT Multi-mode Microplate Reader (BioTek Instruments, Winooski, VT USA). Blank wells, devoid of PEX or CHO cells, also were inoculated with bacteria and served as a control for non-specific binding. The assay was performed in triplicate on 3 separate occasions. A Student's t-test was used to determine the statistical significance of the calculated mean of bacterial adherence.

[2] = test system: N. gonorrhoeae strain MS11gfp adherence to CHO-CR3 cells; test: Fluorometric adherence assay, gonococci to CHO cells; assay type: cell-based, Neisseria gonorrhoeae; conditions: 1 h post-challenge
Procedure: The ability of carbamazepine to block adherence of N. gonorrhoeae strain MS11gfp to CHO-neo or CHO-CR3 cells was evaluated using a fluorometric adherence assay. Assays were performed essentially as described by Jen et al (2013, PLoS Pathog. 9(5):e1003377). In this regard, CHO-neo or CHO-CR3 cells were seeded to a 96-well plate and allowed to grow to confluence. MS11gfp gonococci were then used to challenge (1 h) CHO cells simultaneously with, or without, various concentrations of carbamazepine (as noted). Fluorescence (485/528 nm) intensity, corresponding to bacterial adherence, was recorded using a Synergy HT Multi-mode Microplate Reader (BioTek Instruments, Winooski, VT USA). The assay was performed in triplicate on 3 separate occasions. A Kruskal-Wallis k-sample analysis of variance was used to determine the statistical significance of the calculated mean of bacterial adherence.
as §1

[3] = target: T1, N. gonorrhoeae MS11 pilin interaction with human rI-domain (Homo sapiens, UniProt P11215); test: SPR 1:1 competition assay, MS11 pilin binding to rI-domain
T1 construct: was performed with human rI-domain immobilized on a CM5 sensor chip surface; made in house
T1 sequence (P11215 150-328): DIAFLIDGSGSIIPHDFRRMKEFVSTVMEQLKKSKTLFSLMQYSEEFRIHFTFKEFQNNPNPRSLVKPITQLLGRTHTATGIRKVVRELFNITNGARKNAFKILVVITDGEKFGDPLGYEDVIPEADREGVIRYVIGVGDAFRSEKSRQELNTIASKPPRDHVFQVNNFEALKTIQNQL
Procedure: To determine if drugs with high affinity interactions with the human rI-domain could inhibit the interaction with MS11 pilin or HIV, competition assay between primary T-cell derived WITO HIV and N. gonorrhoeae MS11 pilin and the drugs were performed as described Mubaiwa et al (2017, Sci Rep. 7(1):5693). Competition analysis SPR of N. gonorrhoeae MS11 pilin and human rI-domain interaction was performed with human rI-domain immobilized on a CM5 sensor chip surface (low immobilization—˜3500 RU compared to ˜14000 RU for initial screening and KD calculations). N. gonorrhoeae MS11 purified pilin, drug or drug and pilin were flowed at 100 nM over the I-domain and the response units of the interactions were recorded.

## NC(=O)N1c2ccccc2C=Cc2ccccc21 [carbamazepine, 5H-dibenzo[b,f]azepine-5-carboxamide]
[1]; 1 h post-challenge
  gonococcal adherence to PEX cells with increasing concentrations: dose-dependent decrease
[1]; Neisseria gonorrhoeae, 1 h, read-out: inhibition of adherence to PEX cells
  inhibition at 1 µM: > 95%
[2]; 1 μM
  gonococcal adherence to CHO-CR3 cells compared with CHO-neo cells: not significantly different than that recorded for CHO-neo cells
[2]
  gonococcal adherence to CHO-CR3, but not CHO-neo, cells with increasing concentrations: dose-dependent decrease
[3]; 1:1 competition, 100 nM
  inhibition at 0.1 µM: ~99%
[3]; 1:1 competition, 100 nM, 0.1 µM
  % inhibition: 98.97%
[3]; direct competition SPR
  Block MS11 pilin in SPR: Yes
[3]; drug alone flowed at 100 nM over immobilized rI-domain
  Drug RU: 4.358 RU
[3]; drug and pilin flowed at 100 nM, 1:1
  Pilin + Drug RU: 4.675 RU
